Measured values as given in US20150329558A1, “FUSED HETEROCYCLIC COMPOUNDS AS ION CHANNEL MODULATORS” (Gilead Sciences, Inc., priority 2011, published 2015).
Read-outs that look alike come from different tables or passages of the source.

Legend:
[1] = molecular target: wild-type human cardiac sodium channel, hNav1.5 (late INa) (Homo sapiens, UniProt Q14524); experiment: Late INa screening assay (QPatch whole cell patch clamp); assay type: cell-based
Method in brief: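 HEK293 cells stably expressing hNav1.5 alpha subunit without beta subunits, QPatch automated whole-cell clamp at 23-25° C, CsF-based internal solution pH 7.4. Late INa induced by 10 μM tefluthrin; 250 ms steps to −20 mV from −120 mV at 0.1 Hz, compounds at 1 μM. Percent block of mean current 225–250 ms into the step.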

[2] = molecular target: wild-type human cardiac sodium channel, hNav1.5 (peak INa) (Homo sapiens, UniProt Q14524); experiment: Peak INa screening assay (tonic and use-dependent block); assay type: cell-based
Sequence of wild-type human cardiac sodium channel, hNav1.5 (peak INa) (Q14524 whole entry): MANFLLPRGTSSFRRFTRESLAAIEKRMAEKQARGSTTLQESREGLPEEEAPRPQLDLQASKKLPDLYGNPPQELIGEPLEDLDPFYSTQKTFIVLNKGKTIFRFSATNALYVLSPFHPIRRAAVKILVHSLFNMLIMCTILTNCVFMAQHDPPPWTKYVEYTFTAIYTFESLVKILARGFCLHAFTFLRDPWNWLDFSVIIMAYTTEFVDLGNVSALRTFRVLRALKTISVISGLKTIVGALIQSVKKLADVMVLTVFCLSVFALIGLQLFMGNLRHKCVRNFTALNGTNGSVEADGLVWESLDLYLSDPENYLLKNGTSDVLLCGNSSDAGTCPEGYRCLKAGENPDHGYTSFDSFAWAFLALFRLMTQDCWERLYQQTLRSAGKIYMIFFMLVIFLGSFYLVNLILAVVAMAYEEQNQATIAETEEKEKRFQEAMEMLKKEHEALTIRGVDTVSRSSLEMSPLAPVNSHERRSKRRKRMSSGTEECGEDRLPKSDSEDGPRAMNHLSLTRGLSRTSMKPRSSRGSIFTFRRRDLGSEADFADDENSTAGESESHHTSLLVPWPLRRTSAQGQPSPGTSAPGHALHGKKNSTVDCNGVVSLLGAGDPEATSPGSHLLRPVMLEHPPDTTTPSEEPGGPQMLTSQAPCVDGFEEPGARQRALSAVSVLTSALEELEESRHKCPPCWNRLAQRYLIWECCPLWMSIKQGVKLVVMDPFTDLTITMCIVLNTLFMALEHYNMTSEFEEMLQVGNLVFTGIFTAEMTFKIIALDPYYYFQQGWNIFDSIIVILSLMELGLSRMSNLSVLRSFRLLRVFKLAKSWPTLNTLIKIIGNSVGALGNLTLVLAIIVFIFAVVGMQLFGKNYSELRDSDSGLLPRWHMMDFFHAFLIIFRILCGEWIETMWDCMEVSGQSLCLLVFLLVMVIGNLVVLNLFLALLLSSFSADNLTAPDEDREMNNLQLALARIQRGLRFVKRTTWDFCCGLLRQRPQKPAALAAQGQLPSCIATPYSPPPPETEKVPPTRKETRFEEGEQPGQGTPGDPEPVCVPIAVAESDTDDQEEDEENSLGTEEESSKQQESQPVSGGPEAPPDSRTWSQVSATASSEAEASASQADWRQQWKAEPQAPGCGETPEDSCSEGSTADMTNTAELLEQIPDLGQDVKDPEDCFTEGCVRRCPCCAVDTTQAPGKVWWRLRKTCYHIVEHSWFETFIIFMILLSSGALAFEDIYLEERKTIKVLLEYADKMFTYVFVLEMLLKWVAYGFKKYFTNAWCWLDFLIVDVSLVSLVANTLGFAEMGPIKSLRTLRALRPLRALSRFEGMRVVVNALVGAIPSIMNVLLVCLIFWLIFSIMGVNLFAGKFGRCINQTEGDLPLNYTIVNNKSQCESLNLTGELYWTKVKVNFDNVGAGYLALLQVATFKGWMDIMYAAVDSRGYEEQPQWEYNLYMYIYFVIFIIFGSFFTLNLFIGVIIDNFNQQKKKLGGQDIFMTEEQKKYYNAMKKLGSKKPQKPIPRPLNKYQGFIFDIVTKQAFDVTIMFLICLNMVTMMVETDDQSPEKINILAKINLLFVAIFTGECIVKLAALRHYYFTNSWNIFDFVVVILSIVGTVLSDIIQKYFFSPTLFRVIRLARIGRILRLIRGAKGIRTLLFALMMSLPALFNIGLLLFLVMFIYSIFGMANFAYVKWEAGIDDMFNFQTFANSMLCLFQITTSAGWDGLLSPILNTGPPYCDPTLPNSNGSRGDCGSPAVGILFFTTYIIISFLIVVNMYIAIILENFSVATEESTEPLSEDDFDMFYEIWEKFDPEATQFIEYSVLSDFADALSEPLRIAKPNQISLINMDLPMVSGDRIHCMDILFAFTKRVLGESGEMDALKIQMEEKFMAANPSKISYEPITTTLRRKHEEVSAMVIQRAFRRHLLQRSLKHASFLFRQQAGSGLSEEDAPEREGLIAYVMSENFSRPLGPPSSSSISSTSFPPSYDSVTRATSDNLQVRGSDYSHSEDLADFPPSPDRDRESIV
Experimental: The late sodium current (Late INa) and peak sodium current (Peak INa) assays are performed on an automated electrophysiology platform, QPatch 16× (Sophion Bioscience, Copenhagen, Denmark), which uses the whole cell patch clamp technique to measure currents through the cell membrane of up to 16 cells at a time. The assay uses an HEK293 (human embryonic kidney) cell line heterologously expressing the wild-type human cardiac sodium channel, hNav1.5, purchased from Millipore (Billerica, Mass.). No beta subunits were coexpressed with the Na channel alpha subunit. Cells are maintained with standard tissue culture procedures and stable channel expression is maintained with 400 μg/mL Geneticin in the culture medium. […] Experiments are carried out at 23-25° C. For both the Late INa and Peak INa assays, series resistance compensation is set to 100% and series resistance and whole-cell compensation are performed automatically. Currents are digitized at 25 kHz and low-pass filtered at 12 kHz and 10 kHz for the late and peak INa assays, respectively. Currents through open sodium channels are automatically recorded and stored in the Sophion Bioscience Oracle database (Sophion Bioscience, Copehagen, Denmark). Analysis is performed using QPatch Assay and database software and data are compiled in Excel. Compound stocks are routinely made by the Gilead Sample Bank in plastic vials to 10 mM in dimethyl sulfoxide (DMSO). In some cases, when compounds are not soluble in DMSO, they are made in 100% ethanol. Stocks are sonicated as necessary. […] The intracellular solution used to perfuse the inside of the cells for both the Late INa and Peak INa assays contains: 120 mM CsF, 20 mM CsCl, 5 mM EGTA, 5 mM HEPES and pH adjusted to 7.4 with CsOH. Compounds are diluted in extracellular solution to 1 μM in glass vials and then transferred to glass well plates before robotic addition to the cells. […] Compounds were also evaluated for their effect in several other assays, including their effect on Peak INa. Good separation between the concentrations of test compound to reduce late and peak INa is beneficial to enable separation of the desired effect to reduce late INa-induced electrical and mechanical dysfunction from the undesired effect to reduce peak INa, which can lead to slowing or block of conduction of electrical excitation in the heart. It is contemplated that the compounds of Formula I avoid significant block of peak INa. Since the peak INa in the cells used herein can be very large, introducing artifacts in the recording, the concentration of Na^+ in the bath can be reduced to 20 mM and a nonpermeant cation added to compensate for the Na^+ that was removed to maintain the osmolarity and ionic strength of the solution (see solution details below). Analysis of peak INa generally requires correction for rundown before determining the % block of peak current by the tested compound. […] A low stimulation frequency of 0.1 Hz was used to determine the effect of the test compound when the channel spent most of the time in the resting (closed) state and provides information about Tonic Block (TB). A higher stimulation frequency (3 Hz) was used to measure block of the channel when it spent more time in the activated and inactivated states and provided a measure of Use-Dependent Block (UDB). Use-dependent block refers to the accumulation of block with increased frequency of channel activation. Block of cardiac peak INa by compounds of this invention is increased with an increase in the frequency of stimulation from 0.1 to 1-5 Hz (frequencies encountered either in the normal heart or during tachycardia). It is therefore expected that reduction of peak INa by compounds of this invention will be greater at high heart rates, such as those during tachyarrhythmias, than at normal heart rates. […]

[3] = Microsomal stability assay, rat; assay type: in vitro ADME; details: metabolic stability, rat liver microsomes 0.5 mg/mL, substrate 3 uM
Method in brief: (§1)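 Liver microsomes at 0.5 mg/mL protein in 100 mM KPO4 buffer, incubated with 3 uM compound and NADPH-regenerating system, run in duplicate. Samples taken at 2, 12, 25, 45 and 65 min and quenched in MeOH/ACN/water before analysis.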

[4] = Microsomal stability assay, dog; assay type: in vitro ADME; details: metabolic stability, dog liver microsomes 0.5 mg/mL, substrate 3 uM
Method in brief: as §1

[5] = Microsomal stability assay, human; assay type: in vitro ADME; details: metabolic stability, human liver microsomes 0.5 mg/mL, substrate 3 uM
Method in brief: as §1

[6] = % inhibition at 1 μM, read-out: NAv1.5*-LATE-
[7] = percent block of late INa, compound at 1 μM, 10 μM Tefluthrin, HEK293 hNav1.5, read-out: Late INa 1 μM
[8] = % inhibition at 1 μM, tonic block, read-out: NAv1.5*-PEAK-TB-
[9] = % inhibition at 1 μM, use-dependent block 3 Hz, read-out: NAv1.5*-PEAK-UDB-3 HZ-
[10] = tonic block of peak INa, 0.1 Hz, 1 μM, read-out: Peak TB 1 μM
[11] = use-dependent block of peak INa, 3 Hz, 1 μM, read-out: Peak UDB 1 μM

Sequence of wild-type human cardiac sodium channel, hNav1.5 (late INa) (Q14524 whole entry): as above

Row | MS Rat THalf [3] [min] | MS Dog THalf [4] [min] | MS Human THalf [5] [min] | Structure (SMILES) | inhibition at 1 µM [1, 6] [%] | inhibition at 1 µM [1, 7] [%] | inhibition at 1 µM [2, 8] [%] | inhibition at 1 µM [2, 9] [%] | inhibition at 1 µM [2, 10] [%] | inhibition at 1 µM [2, 11] [%]
1 | 14 | 74 | 35 | C[C@@H]1CC[C@@H](C)N1C(=O)N1CCc2ccc(-c3ccc(C(F)(F)F)cc3)cc2C1 [IX-105] | 43 | 43 | 6 | 3 | 6 | 3
2 | 96 | 37 | 157 | O=c1c2cc(-c3ccc(OC(F)(F)F)cc3)ccc2cnn1CCOc1ncc(Cl)cn1 [III-37, 2-(2-(5-chloropyrimidin-2-yloxy)ethyl)-7-(4-(trifluoromethoxy)phenyl)phthalazin-1 (2H)-one] |  | 50 |  |  | 7 | 4
3 | 58 | 107 | 74 | O=C1c2cc(-c3ccc(OC(F)(F)F)cc3)ccc2SCN1Cc1ccccn1 [Compound X-1, 3-(pyridin-2-ylmethyl)-6-(4-(trifluoromethoxy)phenyl)-2H-benzo[e][1,3]thiazin-4(3H)-one] |  | 47 |  |  | 14 | 22
4 | 35 | 76 | 52 | O=c1c2cc(-c3ccc(OC(F)(F)F)cc3)ccc2nnn1Cc1coc(C2CC2)n1 [II-100, 3((2-cyclopropyloxazol-4-yl)methyl)-6-(4-(trifluoromethoxy)phenyl)benzo[d][1,2,3]triazin-4(3H)-one] |  | 50 |  |  | 15 | 2
5 | 62 | 56 | 152 | O=c1c2cc(-c3ccc(OC(F)(F)F)cc3)ccc2cnn1CCOc1ccccn1 [III-40, 2-(2-(pyridin-2-yloxy)ethyl)-7-(4-(trifluoromethoxy)phenyl)phthalazin-1 (2H)-one] |  | 51 |  |  | 4 | 2
6 | 57 | 55 | 48 | O=C1c2cc(-c3ccc(C(F)(F)F)cc3)ccc2SCN1Cc1ccccc1Cl [Compound X-5, 3-(2-chlorobenzyl)-6-(4-(trifluoromethyl)phenyl)-2H-benzo[e][1,3]thiazin-4(3H)-one] |  | 57 |  |  | 12 | 35
7 | 170 | 97 | 320 | O=C(c1ncccc1F)N1CCc2ccc(-c3ccc(C(F)(F)F)cc3)cc2C1 [IX-25, (3-fluoropyridin-2-yl)(7-(4-(trifluoromethyl)phenyl)-3,4-dihydroisoquinolin-2(1H)-yl)methanone] | 57 | 57 | 28 | 32 | 28 | 33
8 | 47 | 75 | 70 | O=C1c2cc(-c3ccc(OC(F)(F)F)cc3)ccc2SCN1Cc1ncccc1F [Compound X-9, 3-((3-fluoropyridin-2-yl)methyl)-6-(4-(trifluoromethoxy)phenyl)-2H-benzo[e][1,3]thiazin-4(3H)-one] |  | 67 |  |  | 39 | 31
9 | 348 | 332 | 145 | O=C(c1ncccn1)N1CCc2ccc(-c3ccc(OC(F)(F)F)cc3)cc2C1 [IX-11, pyrimidin-2-yl(7-(4-(trifluoromethoxy)phenyl)-3,4-dihydroisoquinolin-2(1H)-yl)methanone] | 44 | 44 | 17 | 22 | 17 | 22
10 | 31 | 36 | 34 | O=c1c2cc(-c3ccc(OC(F)(F)F)cc3)ccc2nnn1CC1(CN2CCCC2)CC1 [II-63, 3-((1-(pyrrolidin-1-ylmethyl)cyclopropyl)methyl)-6-(4-(trifluoromethoxy)phenyl)benzo[d][1,2,3]triazin-4(3H)-one] |  | 46 |  |  | 23 | 50
11 | 70 | 167 | 205 | COc1ccnc(Cn2ncc3ccc(-c4ccc(OC(F)(F)F)cc4)cc3c2=O)n1 [III-30, 2-((4-methoxypyrimidin-2-yl)methyl)-7-(4-(trifluoromethoxy)phenyl)phthalazin-1 (2H)-one] |  | 56 |  |  | 11 | 12
12 | 27 | 99 | 51 | O=c1c2cc(-c3ccc(Oc4ccc(Cl)cc4)cc3)ccc2nnn1CCn1cccn1 [II-29, 3-(2-(1H-pyrazol-1-yl)ethyl)-6-(4-(4-chlorophenoxyl)phenyl)benzo[d][1,2,3]triazin-4(3H)-one] |  | 52 |  |  | 44 | 67
13 | 137 | 164 | 142 | O=C1c2cc(-c3ccc(OC(F)(F)F)cc3)ccc2SCN1Cc1ncccn1 [Compound X-2, 3-(pyrimidin-2-ylmethyl)-6-(4-(trifluoromethoxy)phenyl)-2H-benzo[e][1,3]thiazin-4(3H)-one] |  | 55 |  |  | 14 | 17
14 | 135 | 61 | 270 | O=c1c2cc(-c3ccc(OC(F)(F)F)cc3)ccc2nnn1Cc1ncc(Cl)cn1 [II-4, 3((5-chloropyrimidin-2-yl)methyl)-6-(4-(trifluoromethoxy)phenyl)benzo[d][1,2,3]triazin-4(3H)-one] |  | 41 |  |  | 9 | 4
15 | 43 | 83 | 268 | O=c1c2cc(-c3ccc(OC(F)(F)F)cc3)ccc2cnn1Cc1nccc(OCC2CC2)n1 [III-27, 2((4-(cyclopropylmethoxy)pyrimidin-2-yl)methyl)-7-(4-(trifluoromethoxy)phenyl)phthalazin-1 (2H)-one] |  | 52 |  |  | 15 | 15
16 | 24 | 31 | 54 | CC(Cn1ncc2ccc(-c3ccc(OC(F)(F)F)cc3)cc2c1=O)n1cccn1 (stereo not drawn) [III-38, 2-(2-(1H-pyrazol-1-yl)propyl)-7-(4-(trifluoromethoxy)phenyl)phthalazin-1 (2H)-one] |  | 52 |  |  | 9 | 11
